In patent publication US5747447A, “Stable polypeptide composition” (COR Therapeutics, priority 1995, dated 1998):
Like-named read-outs stand apart in the source and are kept apart here. Where a SMILES comes first, the peptide text is derived from it. Bridges are numbered along the chain shown (N, C = ends). [ ]: non-standard residue; d: D form. hArg = N=C(N)NCCCC[C@H](N)C(=O)O; Mpa = O=C(O)CCS

Assays:
M21 melanoma cells = test: M21 melanoma cell adhesion to vitronectin-coated plates; assay type: cell-based
Protocol: M21 melanoma cells were labelled with ^35 S-methionine, and then added to vitronectin-coated plates in the presence of the indicated concentrations of purified snake venom peptides. Cell attachment was measured by solubilizing the cells remaining after an incubation and wash, as previously describe.

GP IIb-IIIa = biological target: T1, GP IIb-IIIa (Homo sapiens, UniProt P05106+P08514); assay type: binding; conditions: plate assays
T1 construct: GP IIb-IIIa, prepared in purified form; from tissue; own knowledge of the cited Fitzgerald et al. 1985 method
T1 sequence (P08514 32-887 limits assumed): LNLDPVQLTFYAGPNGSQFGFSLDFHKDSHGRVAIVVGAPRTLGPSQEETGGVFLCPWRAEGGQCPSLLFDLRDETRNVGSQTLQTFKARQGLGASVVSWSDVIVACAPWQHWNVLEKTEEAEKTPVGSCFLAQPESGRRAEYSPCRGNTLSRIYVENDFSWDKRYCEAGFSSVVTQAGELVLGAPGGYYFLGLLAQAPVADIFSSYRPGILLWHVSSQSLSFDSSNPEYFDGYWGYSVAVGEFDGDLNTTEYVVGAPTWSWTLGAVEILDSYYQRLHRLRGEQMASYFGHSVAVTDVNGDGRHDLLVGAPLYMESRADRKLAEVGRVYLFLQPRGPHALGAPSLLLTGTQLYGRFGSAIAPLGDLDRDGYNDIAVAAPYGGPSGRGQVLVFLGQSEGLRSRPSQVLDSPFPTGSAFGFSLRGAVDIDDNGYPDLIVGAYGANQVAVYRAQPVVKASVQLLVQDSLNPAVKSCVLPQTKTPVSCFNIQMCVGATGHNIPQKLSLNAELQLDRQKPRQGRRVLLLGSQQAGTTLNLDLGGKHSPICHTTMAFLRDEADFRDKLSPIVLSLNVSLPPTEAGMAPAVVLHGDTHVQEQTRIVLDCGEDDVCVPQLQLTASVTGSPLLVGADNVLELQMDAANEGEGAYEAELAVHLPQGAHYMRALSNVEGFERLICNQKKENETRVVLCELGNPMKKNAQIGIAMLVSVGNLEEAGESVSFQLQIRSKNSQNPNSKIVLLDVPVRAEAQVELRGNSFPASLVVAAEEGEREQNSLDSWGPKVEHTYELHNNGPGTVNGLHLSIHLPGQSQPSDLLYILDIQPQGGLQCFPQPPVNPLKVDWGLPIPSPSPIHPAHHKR
T1 sequence (P08514 891-1039 limits assumed): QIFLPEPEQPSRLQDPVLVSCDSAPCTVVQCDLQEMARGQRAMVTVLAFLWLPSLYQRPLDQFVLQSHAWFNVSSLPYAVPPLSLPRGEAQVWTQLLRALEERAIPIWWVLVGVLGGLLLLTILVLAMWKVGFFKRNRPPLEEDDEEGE
T1 sequence (P05106 27-788): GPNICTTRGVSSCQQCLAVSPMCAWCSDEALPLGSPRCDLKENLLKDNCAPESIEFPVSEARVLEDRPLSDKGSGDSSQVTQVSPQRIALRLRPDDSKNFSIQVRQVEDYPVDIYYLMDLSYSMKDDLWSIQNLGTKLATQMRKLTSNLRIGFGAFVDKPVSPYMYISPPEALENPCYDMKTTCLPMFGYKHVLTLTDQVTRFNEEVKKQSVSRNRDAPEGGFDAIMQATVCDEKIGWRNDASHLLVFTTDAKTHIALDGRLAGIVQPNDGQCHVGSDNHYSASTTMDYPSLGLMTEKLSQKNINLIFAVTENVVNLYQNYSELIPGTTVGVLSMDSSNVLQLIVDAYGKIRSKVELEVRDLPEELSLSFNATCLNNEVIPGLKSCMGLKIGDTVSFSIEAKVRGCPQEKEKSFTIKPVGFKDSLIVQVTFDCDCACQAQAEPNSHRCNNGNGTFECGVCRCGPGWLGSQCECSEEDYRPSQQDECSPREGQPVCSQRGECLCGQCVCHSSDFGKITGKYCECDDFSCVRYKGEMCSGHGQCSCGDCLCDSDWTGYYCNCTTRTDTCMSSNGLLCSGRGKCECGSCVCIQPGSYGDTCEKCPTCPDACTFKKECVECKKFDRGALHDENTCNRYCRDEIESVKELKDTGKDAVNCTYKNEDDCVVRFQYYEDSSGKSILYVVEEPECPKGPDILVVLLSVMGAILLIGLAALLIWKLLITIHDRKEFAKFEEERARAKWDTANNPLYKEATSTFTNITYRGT
Protocol: In the assay, GP IIb-IIIa, prepared in purified form, for example as described by Fitzgerald, L. A., et al., Anal Biochem (1985) 151:169-177, incorporated herein by reference, is coated onto a solid support such as beads, test tubes, or microtiter plates. The coated support is then contacted with fibrinogen and with the test material and incubated for a sufficient time to permit maximal binding of fibrinogen to the immobilized GP IIb-IIIa. Fibrinogen is typically provided at a concentration of about 5-50 nM and the test material can, if desired, be added at a series of dilutions. Typical incubations are 2-4 hr at 35° C., the time and temperature being interdependent.
After incubation, the solution containing the fibrinogen and test material is removed and the level of binding of fibrinogen measured by quantitating bound fibrinogen to GP IIb-IIIa. Any suitable means of detection can be used, but it is convenient to employ labeled fibrinogen, for example using radioactive, fluorescent or biotinylated labels. Such methods are well known and need not be elaborated here.
Assessment of the results is aided by employing a control sample, usually identical to the test sample except that the test substance is absent. In this case, percent inhibition may be calculated using the basis, so that [formula] Other measures of inhibition effectiveness, such as IC50, can also be used.

[1] = biological target: ADP-induced human platelet aggregation (Homo sapiens, UniProt P05106+P08514); test: standard aggregation inhibition assay (ADP-induced human platelet aggregation); assay type: cell-based; conditions: for IC50: ADP-induced human platelet aggregation, read-out: Appr, IC50
Sequence of ADP-induced human platelet aggregation (P08514 32-1039): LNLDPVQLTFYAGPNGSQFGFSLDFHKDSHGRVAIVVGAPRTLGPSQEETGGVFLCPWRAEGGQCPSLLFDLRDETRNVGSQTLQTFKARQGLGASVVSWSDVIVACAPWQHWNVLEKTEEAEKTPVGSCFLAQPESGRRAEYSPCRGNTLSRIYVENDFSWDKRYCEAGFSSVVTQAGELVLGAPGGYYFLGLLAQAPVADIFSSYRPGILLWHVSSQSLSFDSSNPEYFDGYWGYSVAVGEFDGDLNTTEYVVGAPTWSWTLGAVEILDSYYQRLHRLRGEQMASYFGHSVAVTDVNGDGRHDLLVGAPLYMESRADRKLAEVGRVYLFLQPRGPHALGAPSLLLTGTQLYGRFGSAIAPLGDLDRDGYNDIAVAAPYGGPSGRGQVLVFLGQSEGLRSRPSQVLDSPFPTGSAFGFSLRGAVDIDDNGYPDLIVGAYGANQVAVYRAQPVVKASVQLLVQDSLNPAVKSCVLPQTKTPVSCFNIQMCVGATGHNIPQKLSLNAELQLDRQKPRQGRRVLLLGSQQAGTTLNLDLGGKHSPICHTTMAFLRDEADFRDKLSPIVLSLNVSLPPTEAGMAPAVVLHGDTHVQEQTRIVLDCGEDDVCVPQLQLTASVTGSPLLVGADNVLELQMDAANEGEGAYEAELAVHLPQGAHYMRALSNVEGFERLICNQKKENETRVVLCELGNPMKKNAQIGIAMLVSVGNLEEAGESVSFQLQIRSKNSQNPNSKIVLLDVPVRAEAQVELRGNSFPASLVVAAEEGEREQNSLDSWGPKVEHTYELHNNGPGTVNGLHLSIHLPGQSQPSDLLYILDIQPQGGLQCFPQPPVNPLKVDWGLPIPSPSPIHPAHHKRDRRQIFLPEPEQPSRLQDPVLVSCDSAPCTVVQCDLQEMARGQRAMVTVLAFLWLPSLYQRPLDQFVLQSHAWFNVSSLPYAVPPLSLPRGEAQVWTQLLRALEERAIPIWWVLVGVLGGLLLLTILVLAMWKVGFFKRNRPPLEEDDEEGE
Sequence of ADP-induced human platelet aggregation (P05106 27-788): as the sequence (P05106 27-788) above
Text: 2. Standard assays directly applied to platelet aggregation, such as those described by Gann, Z.-R., et al., J Biol Chem (1988) 263:19827-19832; Huang, T. F., et al., J Biol Chem (1987) 262:16157-16163; Biochemistry (1989) 28:661-666, cited above and incorporated herein by reference;

[2] = Protocol: 20 ml aliquots of the above solution were placed into Type I glass vials and sealed with rubber stoppers and aluminum closures under sterile conditions and stored at a constant temperature. Test sample vials from each temperature condition, -15° C., 5° C., 30° C. and 45° C. were removed periodically and individually assessed and analyzed for stability by HPLC and visual evaluation as described in Example 1.
[3] = Stability of polypeptide I in citrate buffer, HPLC and visual (Example 1); assay type: physicochemical; conditions: citrate buffer pH 5.00 and 5.50 versus pH 6.0
Protocol: Citrate buffer solution is prepared by mixing citric acid in a volumetric flask to give a final citrate concentration of 25 mM with Nanopure water and adding NaOH to adjust the pH.
One ml aliquots of the above solution of polypeptide in citrate buffer were sealed in borosilicate glass ampules under sterile conditions and stored at a constant temperature. Test sample ampules from each pH and temperature condition 4° C., 50° C. and 70° C. were removed periodically, visually assessed and then analyzed separately by HPLC using a mobile phase comprising acetonitrile (MeCN) and 0.1% trifluoroacetic (TFA) in water. This stability was evaluated by conventional assay methods applicable to purity, weight or size of polypeptides. These included not only visual evaluations, such as discoloration, transparency and precipitation, and included assays normally applied to separate polypeptides from each other and from other materials by reversed phase high performance liquid chromatography (HPLC).
Results of these experiments are set forth in Table 1 in which the stability is expressed in terms of the percentage of main peak of original polypeptide found in the sample analyzed by HPLC. The composition was also found to be normal on visual evaluation.

[4] = 25 mM citrate buffer pH 5.25, about 1 mg/mL
Text: Test sample vials from each temperature condition were removed periodically and analyzed for stability by HPLC and visual inspection as described in Example 1.

vitronectin receptor = vitronectin receptor (Homo sapiens, UniProt P05106+P06756); test: plate assay, inhibition of vitronectin binding to vitronectin receptor; conditions: at concentrations up to 1 uM
Sequence of vitronectin receptor (P06756 31-889 limits assumed): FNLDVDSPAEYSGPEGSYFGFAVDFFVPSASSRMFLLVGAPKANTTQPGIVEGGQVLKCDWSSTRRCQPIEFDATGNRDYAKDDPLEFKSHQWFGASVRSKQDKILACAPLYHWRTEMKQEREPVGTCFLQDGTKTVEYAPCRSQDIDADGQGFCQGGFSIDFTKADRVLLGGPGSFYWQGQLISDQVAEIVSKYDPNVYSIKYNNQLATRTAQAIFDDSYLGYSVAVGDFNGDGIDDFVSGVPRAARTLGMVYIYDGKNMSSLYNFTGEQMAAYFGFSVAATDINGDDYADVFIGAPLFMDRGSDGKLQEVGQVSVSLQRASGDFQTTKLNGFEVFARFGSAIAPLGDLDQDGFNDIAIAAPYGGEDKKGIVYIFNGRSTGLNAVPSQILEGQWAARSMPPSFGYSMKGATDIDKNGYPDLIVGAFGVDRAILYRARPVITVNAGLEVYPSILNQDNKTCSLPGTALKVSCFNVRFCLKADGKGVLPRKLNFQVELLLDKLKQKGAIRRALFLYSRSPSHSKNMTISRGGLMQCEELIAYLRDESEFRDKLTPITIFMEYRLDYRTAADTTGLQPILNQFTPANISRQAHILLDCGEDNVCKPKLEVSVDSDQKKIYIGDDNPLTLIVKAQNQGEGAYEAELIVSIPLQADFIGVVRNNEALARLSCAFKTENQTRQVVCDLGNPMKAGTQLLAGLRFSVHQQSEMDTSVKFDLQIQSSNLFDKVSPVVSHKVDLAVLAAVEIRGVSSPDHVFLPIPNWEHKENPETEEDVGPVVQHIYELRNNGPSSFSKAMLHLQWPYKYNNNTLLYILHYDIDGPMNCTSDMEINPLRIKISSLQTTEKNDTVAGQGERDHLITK
Sequence of vitronectin receptor (P06756 891-1048 limits assumed): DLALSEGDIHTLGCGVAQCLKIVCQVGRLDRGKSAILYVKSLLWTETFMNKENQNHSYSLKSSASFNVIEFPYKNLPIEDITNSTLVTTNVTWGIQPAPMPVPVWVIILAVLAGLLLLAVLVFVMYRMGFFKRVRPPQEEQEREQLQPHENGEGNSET
Sequence of vitronectin receptor (P05106 27-788): as the sequence (P05106 27-788) above
Text: The PAI assay systems further include characterization of the PAI specificity by binding inhibition assays identical to that above but substituting other adhesive proteins for Fg and other receptors for GP IIb-IIIa. In particular, inhibition of the binding of vitronectin to the vitronectin receptor; fibronectin to the fibronectin receptor; fibronectin to GP IIb-IIIa and fibrinogen and/or vWF to GP IIb-IIIa can be assessed. The adhesive protein and receptors for these assays are available in the art.

Compound: C[C@H](NC(=O)[C@@H]1CSSC[C@H](NC(=O)CN)C(=O)NCC(=O)N[C@@H](CCCCN)C(=O)NCC(=O)N[C@@H](CC(=O)O)C(=O)N[C@@H](Cc2c[nH]c3ccccc23)C(=O)N2CCC[C@H]2C(=O)N1)C(N)=O [Analog #3, G-C-G-K-G-D-W-P-C-A-NH2]
- M21 cell attachment to vitronectin (in words) (M21 melanoma cells): ineffective up to 60 uM

Compound: C[C@H](NC(=O)[C@@H]1CSSC[C@H](NC(=O)CN)C(=O)N[C@@H](CCCCN)C(=O)NCC(=O)N[C@@H](CC(=O)O)C(=O)N[C@@H](Cc2c[nH]c3ccccc23)C(=O)N2CCC[C@H]2C(=O)N1)C(N)=O [Analog #4, G-C-K-G-D-W-P-C-A-NH2] (H-GCKGDWPCA-NH2; disulfide 2-8)
- differential fibrinogen/GP IIb-IIIa versus vitronectin/vitronectin receptor (in words) (GP IIb-IIIa): highest differential
- IC50 [1]: 5 µM

Compound: NCCCC[C@@H]1NC(=O)CNC(=O)[C@@H](N)CSSC[C@@H](C(N)=O)NC(=O)[C@@H]2CCCN2C(=O)[C@H](Cc2c[nH]c3ccccc23)NC(=O)[C@H](CC(=O)O)NC(=O)CNC1=O [Analog #5, C-G-K-G-D-W-P-C-NH2] (H-CGKGDWPC-NH2; disulfide 1-8)
- differential fibrinogen/GP IIb-IIIa versus vitronectin/vitronectin receptor (in words) (GP IIb-IIIa): quite specific
- IC50 [1]: 5 µM

Compound: C[C@H](NC(=O)[C@@H]1CSSC[C@H](NC(=O)CN)C(=O)N[C@@H](CCCCN)C(=O)NCC(=O)N[C@@H](CC(=O)O)C(=O)N[C@@H](Cc2c[nH]c3ccccc23)C(=O)N1)C(N)=O [Analog #7, G-C-K-G-D-W-C-A-NH2] (H-GCKGDWCA-NH2; disulfide 2-7 (inferred); N-terminus assumed)
- differential fibrinogen/GP IIb-IIIa versus vitronectin/vitronectin receptor (in words) (GP IIb-IIIa): quite specific

Compound: N=C(N)NCCCC[C@@H]1NC(=O)CCSSC[C@@H](C(N)=O)NC(=O)[C@@H]2CCCN2C(=O)[C@H](Cc2c[nH]c3ccccc23)NC(=O)[C@H](CC(=O)O)NC(=O)CNC1=O [I, Mpr-L-homoarginine-Gly-Asp-Trp-Pro-Cys-NH2 .cndot.acetate] ([Mpa][hArg]GDWPC-NH2; disulfide 1-7)
- Peptide Stability in 5.5 pH Citrate Buffer Composition (HPLC as in Example 1) ([2]; 5° C., Time (days) 0): 98.8
- Peptide Stability in 5.5 pH Citrate Buffer Composition (HPLC as in Example 1) ([2]; 5° C., Time (days) 76): 98.6
- Peptide Stability in 5.5 pH Citrate Buffer Composition (HPLC as in Example 1) ([2]; 5° C., Time (days) 126): 98.5
- Peptide Stability in 5.5 pH Citrate Buffer Composition (HPLC as in Example 1) ([2]; 5° C., Time (days) 222): 98.5
- Peptide Stability in 5.5 pH Citrate Buffer Composition (HPLC as in Example 1) ([2]; 5° C., Time (days) 301): 98.2
- Peptide Stability in 5.5 pH Citrate Buffer Composition (HPLC as in Example 1) ([2]; 5° C., Time (days) 399): 98.2
- Peptide Stability in 5.5 pH Citrate Buffer Composition (HPLC as in Example 1) ([2]; 5° C., Time (days) 572): 98.2
- Peptide Stability in 5.5 pH Citrate Buffer Composition (HPLC as in Example 1) ([2]; 30° C. after one month at 5° C., Time (days) 45): 97.4
- Peptide Stability in 5.5 pH Citrate Buffer Composition (HPLC as in Example 1) ([2]; 30° C. after one month at 5° C., Time (days) 95): 96.4
- Peptide Stability in 5.5 pH Citrate Buffer Composition (HPLC as in Example 1) ([2]; 30° C. after one month at 5° C., Time (days) 191): 95.8
- Peptide Stability in 5.5 pH Citrate Buffer Composition (HPLC as in Example 1) ([2]; 30° C. after one month at 5° C., Time (days) 270): 95.1
- Peptide Stability in 5.5 pH Citrate Buffer Composition (HPLC as in Example 1) ([2]; 30° C. after one month at 5° C., Time (days) 368): 94.5
- Peptide Stability in 5.5 pH Citrate Buffer Composition (HPLC as in Example 1) ([2]; 30° C. after one month at 5° C., Time (days) 541): 93.6
- Peptide Stability in 5.5 pH Citrate Buffer Composition (HPLC as in Example 1) ([2]; 45° C. after one month at 5° C., Time (days) 45): 96.1
- Peptide Stability in 5.5 pH Citrate Buffer Composition (HPLC as in Example 1) ([2]; 45° C. after one month at 5° C., Time (days) 95): 94.1
- Peptide Stability in 5.5 pH Citrate Buffer Composition (HPLC as in Example 1) ([2]; 45° C. after one month at 5° C., Time (days) 191): 92.4
- Peptide Stability in 5.5 pH Citrate Buffer Composition (HPLC as in Example 1) ([2]; 45° C. after one month at 5° C., Time (days) 270): 89.8
- Peptide Stability in 5.5 pH Citrate Buffer Composition (HPLC as in Example 1) ([2]; 45° C. after one month at 5° C., Time (days) 368): 86.5
- Peptide Stability in 5.5 pH Citrate Buffer Composition (HPLC as in Example 1) ([2]; 45° C. after one month at 5° C., Time (days) 541): 76.1
- Peptide Stability in 5.5 pH Citrate Buffer Composition (HPLC as in Example 1) ([2]; -15° C. after one month at 5° C., Time (days) 45): 98.9
- Peptide Stability in 5.5 pH Citrate Buffer Composition (HPLC as in Example 1) ([2]; -15° C. after one month at 5° C., Time (days) 95): 99.0
- Peptide Stability in 5.5 pH Citrate Buffer Composition (HPLC as in Example 1) ([2]; -15° C. after one month at 5° C., Time (days) 191): 99.1
- Peptide Stability in 5.5 pH Citrate Buffer Composition (HPLC as in Example 1) ([2]; -15° C. after one month at 5° C., Time (days) 270): 98.7
- Peptide Stability in 5.5 pH Citrate Buffer Composition (HPLC as in Example 1) ([2]; -15° C. after one month at 5° C., Time (days) 368): 98.6
- Peptide Stability in 5.5 pH Citrate Buffer Composition (HPLC as in Example 1) ([2]; -15° C. after one month at 5° C., Time (days) 541): 98.9
- stability of liquid solution (in words) [3]: unexpectedly very stable at about 4° C., still stable at up to about 50 °C and much more stable at 70 °C in comparison to citrate buffer solutions at pH 6.0

Compound: C[C@@H]1NC(=O)CCSSC[C@@H](C(N)=O)NC(=O)[C@@H]2CCCN2C(=O)[C@H](Cc2c[nH]c3ccccc23)NC(=O)[C@H](CC(=O)O)NC(=O)CNC(=O)[C@H](CCCCNC(=N)N)NC1=O [PAI 82, Mpr-A-Har-G-D-W-P-C-NH2] ([Mpa]A[hArg]GDWPC-NH2; disulfide 1-8)
- stability by HPLC as in Example 1 ([4]; 5° C., Time (Days) 0): 99.6
- stability by HPLC as in Example 1 ([4]; 5° C., Time (Days) 29): 98.1
- stability by HPLC as in Example 1 ([4]; 5° C., Time (Days) 60): 98.3
- stability by HPLC as in Example 1 ([4]; 5° C., Time (Days) 90): 97.3
- stability by HPLC as in Example 1 ([4]; 30° C., Time (Days) 29): 97.3
- stability by HPLC as in Example 1 ([4]; 30° C., Time (Days) 60): 97.3
- stability by HPLC as in Example 1 ([4]; 30° C., Time (Days) 90): 96.5
- stability by HPLC as in Example 1 ([4]; 45° C., Time (Days) 29): 95.4
- stability by HPLC as in Example 1 ([4]; 45° C., Time (Days) 60): 92.6
- stability by HPLC as in Example 1 ([4]; 45° C., Time (Days) 90): 90.6
- IC20 ([1]; PAI activity, Example 15, read-out: Appr.IC20): 120 nM

Compound: C[C@H](NC(=O)[C@@H]1CSSC[C@H](NC(=O)CN)C(=O)NCC(=O)N[C@@H](CCCNC(=N)N)C(=O)NCC(=O)N[C@@H](CC(=O)O)C(=O)N[C@@H](Cc2c[nH]c3ccccc23)C(=O)N2CCC[C@H]2C(=O)N1)C(N)=O [reference compound] (H-GCGRGDWPCA-NH2; disulfide 2-9)
- M21 cell attachment to vitronectin (in words) (M21 melanoma cells): potent inhibitors of cell attachment

Compound: [E^28 L^41 C^64 ]barbourin (28-73) [Analog #1]
- affinity for VnR (in words) (vitronectin receptor): relative lack of affinity
- M21 cell attachment to vitronectin (in words) (M21 melanoma cells): Neither barbourin nor Peptide 1 (truncated barbourin) had a significant effect
- platelet aggregation inhibition activity (in words) [1]: potent inhibitors of platelet aggregation
